Reference: patent US8748625B2, “Crystalline forms of 3-[5-(2-fluorophenyl)-[1,2,4]oxadiazol-3-yl]-benzoic acid” (PTC Therapeutics, Inc., priority 2006, dated 2014)
“Also recorded” adds a separate entry of the source.

How the values were obtained:
Format in all cases: physicochemical
[1] = Physical stability on slurrying in solvents
[2] = Physical stability under compression
[3] = Dynamic vapor sorption (DVS) hygroscopicity; settings: for hygroscopicity: DVS isotherm
Procedure: Form A of 3-[5-(2-fluorophenyl)-[1,2,4]oxadiazol-3-yl]-benzoic acid was evaluated for hygroscopicity. Dynamic vapor sorption (DVS) analysis of moisture uptake and moisture release as a function of relative humidity (RH) were obtained upon cycling between 5% and 95% RH. […] Accordingly, in certain embodiments, Form A is non-hygroscopic.
Moisture sorption/desorption data were collected on a VTI SGA-100 Vapor Sorption Analyzer. Sorption and desorption data were collected over a range of 5% to 95% relative humidity (RH) at 10% RH intervals under a nitrogen purge. Samples were not dried prior to analysis. Equilibrium criteria used for analysis were less than 0.0100% weight change in 5 minutes, with a maximum equilibration time of 3 hours if the weight criterion was not met. Data were not corrected for the initial moisture content of the samples. NaCl and PVP were used as calibration standards.

[4] = Physical stability on storage at controlled relative humidity; settings: stored 6 days
Procedure: 3-[5-(2-fluorophenyl)-[1,2,4]oxadiazol-3-yl]-benzoic acid (UNMEASURED QUANTITY; FORM B) was stressed in 75% relative humidity at 40° C. for six days.

[5] = Physical stability on milling / micronization; settings: for physical stability when milled: milled at ambient and at sub-ambient temperatures

| Structure (SMILES) | physical stability when slurried ([1]; 1 day at ambient temperature in a 1:1 mixture of THF and heptane) | physical stability when slurried ([1]; in a 1:1 mixture of dioxane and water) | physical stability when slurried ([1]; in methyl isobutyl ketone) | physical stability under compression ([2]; compression alone) | physical stability under compression ([2]; compression in the presence of a 1:1 mixture of t-BuOH and water) | hygroscopicity [3] | physical stability on storage ([4]; 50% RH at 60° C.) | physical stability on storage ([4]; 53% RH at 40° C.) | physical stability on storage ([4]; 75% RH at 40° C.) | physical stability on storage ([4]; 79% RH at 60° C.) | physical stability when milled [5] | physical stability when slurried ([1]; in 1-BuOH for 4 days at ambient temperature) | physical stability when slurried ([1]; in chloroform for 2 days at 50° C.) | physical stability when slurried ([1]; in dichloromethane for 2 days at 50° C.) | maximum moisture uptake (DVS) ([3]; cycling between 5% and 95% RH) | physical and chemical stability upon micronization ([5]; micronization (particle size reduction)) |
| --- | --- | --- | --- | --- | --- | --- | --- | --- | --- | --- | --- | --- | --- | --- | --- | --- |
| O=C(O)c1cccc(-c2noc(-c3ccccc3F)n2)c1 [Form B, 3-[5-(2-fluorophenyl)-[1,2,4]oxadiazol-3-yl]-benzoic acid] | physically stable | conversion of Form B to Form A | conversion of Form B to Form A | physically stable | physically stable | substantially non-hygroscopic | physically stable | physically stable | physically stable; also recorded: characterized by XRPD as Form B | partial conversion to Form A | conversion from Form B to Form A | – | – | – | – | – |
| O=C(O)c1cccc(-c2noc(-c3ccccc3F)n2)c1 [Form A, 3-[5-(2-fluorophenyl)-[1,2,4]oxadiazol-3-yl]-benzoic acid] | – | – | – | – | – | substantially non-hygroscopic | physically stable | physically stable | physically stable | physically stable | physically stable | physically stable | physically stable | physically stable | about 0.06 % of the total mass of the sample | physically and chemically stable |
